Values quoted from earlier work as cited in article PMC8395767, “Worsening of the Toxic Effects of (±)Cis-4,4′-DMAR Following Its Co-Administration with (±)Trans-4,4′-DMAR: Neuro-Behavioural, Physiological, Immunohistochemical and Metabolic Studies in Mice” (International Journal of Molecular Sciences, 2021).

Assays:
DAT/SERT = tested on: DAT/SERT; design: method as in PMID 30776375; details: cited from earlier work
[1] = tested on: dopamine (DAT) transporter; design: method as in PMID 30776375, PMID 25331619, PMID 29908239; details: in vitro; cited from earlier work
5-HT2C = molecular target: 5-HT2C; design: method as in PMID 29908239; details: read-out: Ki at 5-HT2C receptor; cited from earlier work
[2] = tested on: noradrenaline (NET) transporter; design: method as in PMID 30776375, PMID 25331619, PMID 29908239; details: in vitro; cited from earlier work
serotonin transporters = tested on: serotonin transporters; design: method as in PMID 30776375, PMID 25331619, PMID 29908239; details: in vitro; cited from earlier work
rat brain synaptosomes = tested on: rat brain synaptosomes; design: method as in PMID 24841869; details: compared with d-amphetamine, aminorex and 4-MAR; cited from earlier work
5-HT2A = molecular target: 5-HT2A; design: method as in PMID 29908239; details: read-out: Ki at 5-HT2A receptor; cited from earlier work

Structure (SMILES): Cc1ccc(C2OC(N)=NC2C)cc1 (stereo not shown) [4,4′-DMAR, 4-Methyl-5-(4-methylphenyl)-4,5-dihydrooxazol-2-amine]
- DAT/SERT ratio (DAT/SERT): 0.4
- Inhibitory activity on dopamine transporter (DAT) [1]: potent inhibitory activity
- Ki (5-HT2C): ~11 µM
- Inhibitory activity on noradrenaline transporter (NET) [2]: potent inhibitory activity
- Inhibitory activity on serotonin transporters (serotonin transporters): potent inhibitory activity
- Release of 5-HT from rat brain synaptosomes (rat brain synaptosomes): most potent releaser
- Ki (5-HT2A): ~8.9 µM
